Measurements reported in patent US20240158446A1, “CYCLIC COMPOUND HAVING SELECTIVE INHIBITORY ACTION ON KRAS OVER HRAS AND NRAS” (CHUGAI SEIYAKU KABUSHIKI KAISHA, priority 2021, published 2024).
Where a SMILES comes first, the peptide text is derived from it. Bridges are numbered along the chain shown (N, C = ends). [ ]: non-standard residue; d: D form. hPhe(3-Cl-4-CF3) = N[C@@H](CCc1ccc(C(F)(F)F)c(Cl)c1)C(=O)O; NPrPhe(4-CF3) = CCCN[C@@H](Cc1ccc(C(F)(F)F)cc1)C(=O)O; NMeGly(cPent) = CN[C@H](C(=O)O)C1CCCC1; Pro(4,4-F2) = O=C(O)[C@@H]1CC(F)(F)CN1; Hyp = O=C(O)[C@@H]1C[C@@H](O)CN1; NMeD = CN[C@@H](CC(=O)O)C(=O)O; NMeL = CN[C@@H](CC(C)C)C(=O)O; Ac5c = NC1(C(=O)O)CCCC1; Ac4c = NC1(C(=O)O)CCC1; NEtG = CCNCC(=O)O; Sar = CNCC(=O)O

Assays:
[1] = target: GDP-bound KRAS wild-type protein (Homo sapiens, UniProt P01116); experiment: Binding to KRAS by surface plasmon resonance (SPR), Single Cycle Kinetics; conditions: SPR Single Cycle Kinetics, GDP-bound KRAS wild-type protein, 1:1 binding model; read-out: KRAS KD
[2] = target: GDP-bound NRAS wild-type protein (Homo sapiens, UniProt P01111); experiment: Binding to NRAS by surface plasmon resonance (SPR), Single Cycle Kinetics; conditions: SPR, GDP-bound NRAS wild-type protein vs GDP-bound KRAS wild-type protein
[3] = target: GDP-bound HRAS wild-type protein (Homo sapiens, UniProt P01112); experiment: Binding to HRAS by surface plasmon resonance (SPR), Single Cycle Kinetics; conditions: SPR, GDP-bound HRAS wild-type protein vs GDP-bound KRAS wild-type protein
Sequence of GDP-bound HRAS wild-type protein (P01112 whole entry): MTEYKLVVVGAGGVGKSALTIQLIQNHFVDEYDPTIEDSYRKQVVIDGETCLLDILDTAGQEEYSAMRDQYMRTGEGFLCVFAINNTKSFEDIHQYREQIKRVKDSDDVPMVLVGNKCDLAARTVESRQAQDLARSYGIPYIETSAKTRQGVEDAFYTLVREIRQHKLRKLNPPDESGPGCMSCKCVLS

Sequence of GDP-bound NRAS wild-type protein (P01111 whole entry): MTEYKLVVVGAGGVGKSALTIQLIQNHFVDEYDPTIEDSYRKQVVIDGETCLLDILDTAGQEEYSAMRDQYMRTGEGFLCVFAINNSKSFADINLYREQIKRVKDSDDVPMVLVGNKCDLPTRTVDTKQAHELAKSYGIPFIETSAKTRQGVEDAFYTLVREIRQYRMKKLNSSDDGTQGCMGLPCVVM
Sequence of GDP-bound KRAS wild-type protein (P01116 whole entry): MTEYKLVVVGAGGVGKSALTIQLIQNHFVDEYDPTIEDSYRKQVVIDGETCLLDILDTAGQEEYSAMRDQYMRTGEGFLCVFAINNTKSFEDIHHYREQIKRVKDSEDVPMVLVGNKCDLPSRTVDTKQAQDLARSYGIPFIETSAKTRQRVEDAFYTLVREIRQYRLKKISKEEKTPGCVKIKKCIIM

## CCCN1C(=O)CN(C)C(=O)CN(C)C(=O)[C@H]([C@@H](C)CC)NC(=O)[C@H](CC(C)C)N(C)C(=O)C[C@@H](C(=O)N(C)C)N(C)C(=O)[C@H](C2CCCC2)N(C)C(=O)C2(CCCC2)NC(=O)[C@@H]2C[C@@H](OCC)CN2C(=O)[C@H](CCc2ccc(C(F)(F)F)c(Cl)c2)NC(=O)CN(C)C(=O)[C@@H]1Cc1ccc(C(F)(F)F)cc1 [PP0415] ([NMeL]I[Sar][Sar][NPrPhe(4-CF3)][Sar][hPhe(3-Cl-4-CF3)][Hyp](Et)[Ac5c][NMeGly(cPent)][NMeD]-NMe2; lactam N-11)
[1]
  Kd: 18 pM
[2]
  NRAS/KRAS (ratio of KD value with respect to NRAS to KD value with respect to KRAS): B (a compound having 3 or more and less than 10 is denoted as B)
[3]
  HRAS/KRAS (ratio of KD value with respect to HRAS to KD value with respect to KRAS): B (a compound having 3 or more and less than 10 is denoted as B)

## CCCN1C(=O)CN(C)C(=O)CN(C)C(=O)[C@H]([C@@H](C)CC)NC(=O)[C@H](CC(C)C)N(C)C(=O)C[C@@H](C(=O)N(C)C)N(C)C(=O)[C@H](C2CCCC2)N(C)C(=O)C2(CCC2)NC(=O)[C@@H]2C[C@@H](OCC)CN2C(=O)[C@H](CCc2ccc(C(F)(F)F)c(Cl)c2)NC(=O)CN(C)C(=O)[C@@H]1Cc1ccc(C(F)(F)F)cc1 [PP0416] ([NMeL]I[Sar][Sar][NPrPhe(4-CF3)][Sar][hPhe(3-Cl-4-CF3)][Hyp](Et)[Ac4c][NMeGly(cPent)][NMeD]-NMe2; lactam N-11)
[1]
  Kd: 27 pM
[2]
  NRAS/KRAS (ratio of KD value with respect to NRAS to KD value with respect to KRAS): B (a compound having 3 or more and less than 10 is denoted as B)
[3]
  HRAS/KRAS (ratio of KD value with respect to HRAS to KD value with respect to KRAS): C (A compound having a KD ratio of 0.1 or more and less than 3 is denoted as C)

## CCCN1C(=O)CN(C)C(=O)CNC(=O)[C@H]([C@@H](C)CC)NC(=O)[C@H](CC(C)C)N(C)C(=O)C[C@@H](C(=O)N(C)C)N(C)C(=O)[C@H](C2CCCC2)N(C)C(=O)C2(CCCC2)NC(=O)[C@@H]2CCCN2C(=O)[C@H](CCc2ccc(C(F)(F)F)c(Cl)c2)NC(=O)CN(C)C(=O)[C@@H]1Cc1ccc(C(F)(F)F)cc1 [PP0417] ([NMeL]IG[Sar][NPrPhe(4-CF3)][Sar][hPhe(3-Cl-4-CF3)]P[Ac5c][NMeGly(cPent)][NMeD]-NMe2; lactam N-11)
[1]
  Kd: 74 pM
[2]
  NRAS/KRAS (ratio of KD value with respect to NRAS to KD value with respect to KRAS): B (a compound having 3 or more and less than 10 is denoted as B)
[3]
  HRAS/KRAS (ratio of KD value with respect to HRAS to KD value with respect to KRAS): C (A compound having a KD ratio of 0.1 or more and less than 3 is denoted as C)

## CCCN1C(=O)CN(C)C(=O)CNC(=O)[C@H]([C@@H](C)CC)NC(=O)[C@H](CC(C)C)N(C)C(=O)C[C@@H](C(=O)N(C)C)N(C)C(=O)[C@H](C2CCCC2)N(C)C(=O)C2(CCC2)NC(=O)[C@@H]2CCCN2C(=O)[C@H](CCc2ccc(C(F)(F)F)c(Cl)c2)NC(=O)CN(C)C(=O)[C@@H]1Cc1ccc(C(F)(F)F)cc1 [PP0418] ([NMeL]IG[Sar][NPrPhe(4-CF3)][Sar][hPhe(3-Cl-4-CF3)]P[Ac4c][NMeGly(cPent)][NMeD]-NMe2; lactam N-11)
[1]
  Kd: 74 pM
[2]
  NRAS/KRAS (ratio of KD value with respect to NRAS to KD value with respect to KRAS): B (a compound having 3 or more and less than 10 is denoted as B)
[3]
  HRAS/KRAS (ratio of KD value with respect to HRAS to KD value with respect to KRAS): C (A compound having a KD ratio of 0.1 or more and less than 3 is denoted as C)

## CCCN1C(=O)CN(C)C(=O)CNC(=O)[C@H]([C@@H](C)CC)NC(=O)[C@H](CC(C)C)N(C)C(=O)C[C@@H](C(=O)N(C)C)N(C)C(=O)[C@H](C2CCCC2)N(C)C(=O)C2(CCCC2)NC(=O)[C@@H]2CC(F)(F)CN2C(=O)[C@H](CCc2ccc(C(F)(F)F)c(Cl)c2)NC(=O)CN(C)C(=O)[C@@H]1Cc1ccc(C(F)(F)F)cc1 [PP0419] ([NMeL]IG[Sar][NPrPhe(4-CF3)][Sar][hPhe(3-Cl-4-CF3)][Pro(4,4-F2)][Ac5c][NMeGly(cPent)][NMeD]-NMe2; lactam N-11)
[1]
  Kd: 67 pM
[2]
  NRAS/KRAS (ratio of KD value with respect to NRAS to KD value with respect to KRAS): B (a compound having 3 or more and less than 10 is denoted as B)
[3]
  HRAS/KRAS (ratio of KD value with respect to HRAS to KD value with respect to KRAS): C (A compound having a KD ratio of 0.1 or more and less than 3 is denoted as C)

## CCCN1C(=O)CN(C)C(=O)CNC(=O)[C@H]([C@@H](C)CC)NC(=O)[C@H](CC(C)C)N(C)C(=O)C[C@@H](C(=O)N(C)C)N(C)C(=O)[C@H](C2CCCC2)N(C)C(=O)C2(CCC2)NC(=O)[C@@H]2CC(F)(F)CN2C(=O)[C@H](CCc2ccc(C(F)(F)F)c(Cl)c2)NC(=O)CN(C)C(=O)[C@@H]1Cc1ccc(C(F)(F)F)cc1 [PP0420] ([NMeL]IG[Sar][NPrPhe(4-CF3)][Sar][hPhe(3-Cl-4-CF3)][Pro(4,4-F2)][Ac4c][NMeGly(cPent)][NMeD]-NMe2; lactam N-11)
[1]
  Kd: 34 pM
[2]
  NRAS/KRAS (ratio of KD value with respect to NRAS to KD value with respect to KRAS): B (a compound having 3 or more and less than 10 is denoted as B)
[3]
  HRAS/KRAS (ratio of KD value with respect to HRAS to KD value with respect to KRAS): C (A compound having a KD ratio of 0.1 or more and less than 3 is denoted as C)

## CCCN1C(=O)CN(C)C(=O)CNC(=O)[C@H]([C@@H](C)CC)NC(=O)[C@H](CC(C)C)N(C)C(=O)C[C@@H](C(=O)N(C)C)N(C)C(=O)[C@H](C2CCCC2)N(C)C(=O)C2(CCCC2)NC(=O)[C@@H]2C[C@@H](OCC)CN2C(=O)[C@H](CCc2ccc(C(F)(F)F)c(Cl)c2)NC(=O)CN(C)C(=O)[C@@H]1Cc1ccc(C(F)(F)F)cc1 [PP0421] ([NMeL]IG[Sar][NPrPhe(4-CF3)][Sar][hPhe(3-Cl-4-CF3)][Hyp](Et)[Ac5c][NMeGly(cPent)][NMeD]-NMe2; lactam N-11)
[1]
  Kd: 33 pM
[2]
  NRAS/KRAS (ratio of KD value with respect to NRAS to KD value with respect to KRAS): B (a compound having 3 or more and less than 10 is denoted as B)
[3]
  HRAS/KRAS (ratio of KD value with respect to HRAS to KD value with respect to KRAS): C (A compound having a KD ratio of 0.1 or more and less than 3 is denoted as C)

## CCCN1C(=O)CN(C)C(=O)CNC(=O)[C@H]([C@@H](C)CC)NC(=O)[C@H](CC(C)C)N(C)C(=O)C[C@@H](C(=O)N(C)C)N(C)C(=O)[C@H](C2CCCC2)N(C)C(=O)C2(CCC2)NC(=O)[C@@H]2C[C@@H](OCC)CN2C(=O)[C@H](CCc2ccc(C(F)(F)F)c(Cl)c2)NC(=O)CN(C)C(=O)[C@@H]1Cc1ccc(C(F)(F)F)cc1 [PP0422] ([NMeL]IG[Sar][NPrPhe(4-CF3)][Sar][hPhe(3-Cl-4-CF3)][Hyp](Et)[Ac4c][NMeGly(cPent)][NMeD]-NMe2; lactam N-11)
[1]
  Kd: 17 pM
[2]
  NRAS/KRAS (ratio of KD value with respect to NRAS to KD value with respect to KRAS): B (a compound having 3 or more and less than 10 is denoted as B)
[3]
  HRAS/KRAS (ratio of KD value with respect to HRAS to KD value with respect to KRAS): B (a compound having 3 or more and less than 10 is denoted as B)

## CCCN1C(=O)CN(C)C(=O)CN(CC)C(=O)[C@H]([C@@H](C)CC)NC(=O)[C@H](CC(C)C)N(C)C(=O)C[C@@H](C(=O)N(C)C)N(C)C(=O)[C@H](C2CCCC2)N(C)C(=O)C2(CCC2)NC(=O)[C@@H]2CCCN2C(=O)[C@H](CCc2ccc(C(F)(F)F)c(Cl)c2)NC(=O)CN(C)C(=O)[C@@H]1Cc1ccc(C(F)(F)F)cc1 [PP0424] ([NMeL]I[NEtG][Sar][NPrPhe(4-CF3)][Sar][hPhe(3-Cl-4-CF3)]P[Ac4c][NMeGly(cPent)][NMeD]-NMe2; lactam N-11)
[1]
  Kd: 170 pM
[2]
  NRAS/KRAS (ratio of KD value with respect to NRAS to KD value with respect to KRAS): B (a compound having 3 or more and less than 10 is denoted as B)
[3]
  HRAS/KRAS (ratio of KD value with respect to HRAS to KD value with respect to KRAS): C (A compound having a KD ratio of 0.1 or more and less than 3 is denoted as C)
